# Source: US12544370B2, “Methods for cancer therapy” (ASCENTAGE PHARMA (SUZHOU) CO., LTD., priority 2018, dated 2026)
# Tests used:
# [1] = Phase 1 trial, pharmacokinetics (Example 2); conditions: for half-life / Tmax: human, in vivo; for Tmax: median Tmax
# Source text: (§1) The eligible patients received continuous treatment until disease progression or unacceptable toxicity, consent withdrawal, or death. The primary efficacy endpoints were major cytogenetic response (MCyR) for CP and complete hematological response (CHR) for AP. MCyR includes partial cytogenetic response (PCyR) and complete cytogenetic response (CCyR). Blood samples were collected at various time points on Day 1-2 and Day 27-28 during cycle 1 for PK analyses.
# [2] = test system: tyrosine phosphorylation of CRKL in peripheral blood mononuclear cell (PBMCs); test: Phase I study, pharmacodynamics: CRKL phosphorylation in PBMCs (Example 1); type: in vivo, human; conditions: doses 12 mg-60 mg, schedule and dose-dependent
# [3] = test system: patients with chronic phase (CP/CML-CP) or accelerated phase (AP/CML-AP) CML resistant to or intolerant of ≥2 prior TKIs or with BCR-ABL T315I; test: Phase 1 trial in resistant CML, further safety (Example 2)
# Source text: as §1
# [4] = test system: Ba/F3 cells having BCR-ABL^T315I
# [5] = test system: TKI-resistant patients with chronic phase (CP) or accelerated phase (AP) CML; test: Phase I study in TKI-resistant CML, efficacy (Example 1); type: in vivo, human; conditions: for CHR achieved: 2 mg to 60 mg, within 3 cycles; for CCyR achieved / MCyR achieved: evaluable ≥3 cycles; for MCyR achieved: 12 mg to 50 mg
# Source text: The eligible patients received treatments until disease progression or intolerable toxicities. The primary efficacy endpoint in the CML AP and CP patients, was complete hematological response (CHR) and major cytogenetic response (MCyR) respectively, MCyR includes partial cytogenetic response (PCyR) and complete cytogenetic response (CCyR). Blood samples were collected at various time points on Day 1-2 and Day 27-28 during cycle 1 for PK analyses.
# [6] = Example 2, Table 3, treatment related AE, treated population 101
# [7] = Example 1, Table 2, T315I mutation
# [8] = Example 1, Table 2, Without T315I mutation
# [9] = FIG. 2A, CML-CP, 24 patients T315I−
# [10] = FIG. 2A, CML-CP, 42 patients T315I+
# [11] = FIG. 2A, CML-CP, total 66 patients
# [12] = FIG. 3A, 30 mg, CML-CP, 7 patients T315I+
# [13] = FIG. 3A, 30 mg, CML-CP, 7 patients T315I−
# [14] = FIG. 3A, 30 mg, CML-CP, total 14 patients
# [15] = FIG. 3B, 40 mg, CML-CP, 8 patients T315I−
# [16] = FIG. 3B, 40 mg, CML-CP, 10 patients T315I+
# [17] = FIG. 3B, 40 mg, CML-CP, total 18 patients
# [18] = FIG. 3C, 50 mg, CML-CP, 4 patients T315I−
# [19] = FIG. 3C, 50 mg, CML-CP, 8 patients T315I+
# [20] = FIG. 3C, 50 mg, CML-CP, total 12 patients
smiles,measurement,setting,value
"Cc1ccc(C(=O)Nc2ccc(CN3CCN(C)CC3)c(C(F)(F)F)c2)cc1C#Cc1cnc2[nH]ncc2c1 [compound of formula (I-A), 3-(2-(1H-pyrazolo[3,4-b]pyridin-5-yl)ethynyl)-4-methyl-N-(4-((4-methylpiperazin-1-yl)methyl)-3-(trifluoromethyl)phenyl)-benzamide]",time at which peak concentration was reached,"[1]; Day 1, single oral administration, 1-60 mg",1 to 12 h
same,time at which peak concentration was observed,"[1]; Day 27, QOD",1 to 12 h
same,half-life,"[1]; mean terminal T1/2, Day 1, 1-60 mg, watching time window 48 hrs",17.5 to 36.5 h
same,half-life,"[1]; mean terminal T1/2, Day 27, watching time window 48 hrs",19.8 to 42.5 h
same,Tmax,"[1]; Day 1, 1-60 mg",4 to 8 h
same,Tmax,"[1]; Day 27, QOD",4 to 6 h
same,reduction of CRKL phosphorylation,[2],≥ 50%
same,death / CTCAE grade 5 events on study,[3]; Example 2,No death and no CTCAE grade 5 events
same,"ALT elevation, Any Grade",[3]; [6],34 (33.7%) n(%)
same,"ALT elevation, Grade 3, 4",[3]; [6],2 (2.0%) n(%)
same,"ALT elevation, SAE",[3]; [6],0 n(%)
same,"AST elevation, Any Grade",[3]; [6],37 (36.6%) n(%)
same,"AST elevation, Grade 3, 4",[3]; [6],3 (3.0%) n(%)
same,"AST elevation, SAE",[3]; [6],0 n(%)
same,"Anemia, Any Grade",[3]; [6],25 (24.8%) n(%)
same,"Anemia, Grade 3, 4",[3]; [6],12 (11.9%) n(%)
same,"Anemia, SAE",[3]; [6],2 (2.0%) n(%)
same,"Bilirubin elevation, Any Grade",[3]; [6],34 (33.7%) n(%)
same,"Bilirubin elevation, Grade 3, 4",[3]; [6],1 (1.0%) n(%)
same,"Bilirubin elevation, SAE",[3]; [6],0 n(%)
same,"CPK elevation, Any Grade",[3]; [6],20 (19.8%) n(%)
same,"CPK elevation, Grade 3, 4",[3]; [6],2 (2.0%) n(%)
same,"CPK elevation, SAE",[3]; [6],0 n(%)
same,"GGT elevation, Any Grade",[3]; [6],24 (23.8%) n(%)
same,"GGT elevation, Grade 3, 4",[3]; [6],0 n(%)
same,"GGT elevation, SAE",[3]; [6],0 n(%)
same,"Hyperglycaemia, Grade 3, 4",[3]; [6],0 n(%)
same,"Hyperglycaemia, SAE",[3]; [6],0 n(%)
same,"Hypertriglyceridaemia, Any grade",[3]; [6],55 (54.5%) n(%)
same,"Hypertriglyceridaemia, Grade 3, 4",[3]; [6],8 (7.9%) n(%)
same,"Hypertriglyceridaemia, SAE",[3]; [6],0 n(%)
same,"Hypocalcaemia, Any grade",[3]; [6],34 (33.7%) n(%)
same,"Hypocalcaemia, Grade 3, 4",[3]; [6],0 n(%)
same,"Hypocalcaemia, SAE",[3]; [6],0 n(%)
same,"Hypokalaemia, Any Grade",[3]; [6],20 (19.8%) n(%)
same,"Hypokalaemia, Grade 3, 4",[3]; [6],0 n(%)
same,"Hypokalaemia, SAE",[3]; [6],0 n(%)
same,"Hyponatraemia, Any Grade",[3]; [6],23 (22.8%) n(%)
same,"Hyponatraemia, Grade 3, 4",[3]; [6],0 n(%)
same,"Hyponatraemia, SAE",[3]; [6],0 n(%)
same,"Myalgia, Grade 3, 4",[3]; [6],0 n(%)
same,"Myalgia, SAE",[3]; [6],0 n(%)
same,"Proteinuria, Any grade",[3]; [6],35 (34.7%) n(%)
same,"Proteinuria, Grade 3, 4",[3]; [6],5 (5.0%) n(%)
same,"Proteinuria, SAE",[3]; [6],0 n(%)
same,"Pyrexia, Any Grade",[3]; [6],18 (17.8%) n(%)
same,"Pyrexia, Grade 3, 4",[3]; [6],7 (6.9%) n(%)
same,"Pyrexia, SAE",[3]; [6],1 (1.0%) n(%)
same,"Rash, Any Grade",[3]; [6],15 (14.9%) n(%)
same,"Rash, Grade 3, 4",[3]; [6],2 (2.0%) n(%)
same,"Rash, SAE",[3]; [6],0 n(%)
same,"Skin mass, Any Grade",[3]; [6],10 (9.9%) n(%)
same,"Skin mass, Grade 3, 4",[3]; [6],1 (1.0%) n(%)
same,"Skin mass, SAE",[3]; [6],0 n(%)
same,"Skin pigmentation, Any Grade",[3]; [6],79 (78.2%) n(%)
same,"Skin pigmentation, Grade 3, 4",[3]; [6],0 n(%)
same,"Skin pigmentation, SAE",[3]; [6],0 n(%)
same,"Thrombocytopenia, Any grade",[3]; [6],76 (75.2%) n(%)
same,"Thrombocytopenia, Grade 3, 4",[3]; [6],50 (49.5%) n(%)
same,"Thrombocytopenia, SAE",[3]; [6],6 (5.9%) n(%)
same,"leukopenia, Grade 3, 4",[3]; [6],20 (19.8%) n(%)
same,"leukopenia, SAE",[3]; [6],0 n(%)
same,patients who experienced DLT,"[3]; Example 2, 60 mg cohort",Two out of 3
same,grade ¾ TRAE thrombocytopenia,"[3]; Example 2, 101 patients",49.5%
same,tolerability,"[3]; Example 2, 101 patients",well-tolerated in all dose cohorts with an exception of 60 mg cohort
same,MTD,"[3]; Example 2, QOD",50 mg
same,patients who experienced ≥1 treatment related adverse events (TRAEs),"[3]; Example 2, all patients",101 (100%) n (%)
same,survival rate of isogenic leukemia mice,[4]; Ba/F3 BCR-ABL T315I,significantly improved the survival rate
same,survival of tumor bearing mice (FIG. 8),"[4]; oral q2d or q3d, dose-dependent manner, imatinib qd as control",significantly prolonged the survival
same,activity by T315I mutation status at baseline,"[5]; Example 1, Table 2",highly active in patients with or without T315I mutation at baseline
same,"Complete cytogenetic response, responders/evaluable","[5]; Example 1, Table 2, All",14/47
same,"Complete hematological response, responders/evaluable","[5]; Example 1, Table 2, All",65/70
same,"Major cytogenetic response, responders/evaluable","[5]; Example 1, Table 2, All",24/47
same,"Major molecular response, percent","[5]; Example 1, Table 2, All",(13%)
same,"Major molecular response, responders/evaluable","[5]; Example 1, Table 2, All",6/48
same,"Complete cytogenetic response, percent",[5]; [7],(45%)
same,"Complete cytogenetic response, responders/evaluable",[5]; [7],13/29
same,"Complete hematological response, percent",[5]; [7],(89%)
same,"Complete hematological response, responders/evaluable",[5]; [7],40/45
same,"Major cytogenetic response, percent",[5]; [7],(59%)
same,"Major cytogenetic response, responders/evaluable",[5]; [7],17/29
same,"Major molecular response, percent",[5]; [7],(20%)
same,"Major molecular response, responders/evaluable",[5]; [7],6/30
same,"Complete cytogenetic response, percent",[5]; [8],(6%)
same,"Complete cytogenetic response, responders/evaluable",[5]; [8],1/18
same,"Complete hematological response, percent",[5]; [8],(100%)
same,"Complete hematological response, responders/evaluable",[5]; [8],25/25
same,"Major cytogenetic response, percent",[5]; [8],(39%)
same,"Major cytogenetic response, responders/evaluable",[5]; [8],7/18
same,"Major molecular response, responders/evaluable",[5]; [8],0/18
same,CHR achieved,"[5]; Example 1, AP patients",7 (58%) n (%)
same,CCyR achieved,"[5]; Example 1, AP patients",2 (25%) n (%)
same,MCyR achieved,"[5]; Example 1, AP patients",3 (38%) n (%)
same,MMR achieved,"[5]; Example 1, CP patients",6 (15%) n (%)
same,CHR achieved,"[5]; Example 1, CP patients",58 (100%) n (%)
same,CCyR achieved,"[5]; Example 1, CP patients",12 (31%) n (%)
same,MCyR achieved,"[5]; Example 1, CP patients",21 (54%) n (%)
same,patients who achieved MCyR or MMR at the end of cycle,"[5]; Example 1, cycle number not given",More than 65%
same,CHR,"[5]; FIG. 1A, CML-CP, 32 patients T315I−",100%
same,CHR,"[5]; FIG. 1A, CML-CP, 50 patients T315I+",96%
same,CHR,"[5]; FIG. 1A, CML-CP, total 82 patients",98%
same,CHR,"[5]; FIG. 1B, CML-AP, 3 patients T315I−",100%
same,CHR,"[5]; FIG. 1B, CML-AP, 11 patients T315I+",82%
same,CHR,"[5]; FIG. 1B, CML-AP, total 14 patients",86%
same,CCyR,[5]; [9],17%
same,MCyR,[5]; [9],46%
same,PCyR,[5]; [9],29%
same,CCyR,[5]; [10],74%
same,MCyR,[5]; [10],78%
same,PCyR,[5]; [10],4%
same,CCyR,[5]; [11],53%
same,MCyR,[5]; [11],67%
same,PCyR,[5]; [11],14%
same,response rate (cytogenetic),"[5]; FIG. 2B, CML-AP, 3 patients T315I−",0
same,CCyR,"[5]; FIG. 2B, CML-AP, 9 patients T315I+",33%
same,MCyR,"[5]; FIG. 2B, CML-AP, total 12 patients",25%
same,CCyR,[5]; [12],57%
same,MCyR,[5]; [12],71%
same,PCyR,[5]; [12],14%
same,CCyR,[5]; [13],14%
same,MCyR,[5]; [13],28%
same,PCyR,[5]; [13],14%
same,CCyR,[5]; [14],36%
same,MCyR,[5]; [14],50%
same,PCyR,[5]; [14],14%
same,CCyR,[5]; [15],13%
same,MCyR,[5]; [15],50%
same,PCyR,[5]; [15],38%
same,CCyR,[5]; [16],60%
same,MCyR,[5]; [16],60%
same,CCyR,[5]; [17],38%
same,MCyR,[5]; [17],54%
same,PCyR,[5]; [17],16%
same,CCyR,[5]; [18],25%
same,MCyR,[5]; [18],50%
same,PCyR,[5]; [18],25%
same,CCyR,[5]; [19],75%
same,MCyR,[5]; [19],100%
same,PCyR,[5]; [19],25%
same,CCyR,[5]; [20],58%
same,MCyR,[5]; [20],83%
same,PCyR,[5]; [20],25%
same,MMR,"[5]; FIG. 4A, CML-CP, 24 patients T315I−",4%
same,MMR,"[5]; FIG. 4A, CML-CP, 43 patients T315I+",47%
same,MMR,"[5]; FIG. 4A, CML-CP, total 67 patients",31%
same,MMR,"[5]; FIG. 4B, CML-AP, 3 patients T315I−",0%
same,MMR,"[5]; FIG. 4B, CML-AP, 9 patients T315I+",11%
same,MMR,"[5]; FIG. 4B, CML-AP, total 12 patients",8%
